Experimental findings from patent US20190029257A1, “APPLICATION FOR HERBICIDE-TOLERANT PROTEIN” (BEIJING DABEINONG TECHNOLOGY GROUP CO., LTD., priority 2016, published 2019) are described below.

Format in all cases: in vivo
The test system of assay [1] is Gm chloroplastic ALT-3-01 soybean plants. Put plainly: Halosulfuron-methyl tolerance of soybean plants (damage degree). Further details: dose or concentration left out as unconfirmed. As to conditions: for Average damage % 3 DAT: 3 days after spraying; for Average damage % 7 DAT: 7 days after spraying; for Average damage % 14 DAT: 14 days after spraying; for Average damage % 21 DAT: 21 days after spraying. The text has this: (§1) The herbicide tolerance effects of Gm cytoplasmic ALT-1-01 soybean plants, Gm chloroplastic ALT-1-01 soybean plants, Gm cytoplasmic ALT-2-01 soybean plants, Gm chloroplastic ALT-2-01 soybean plants, Gm cytoplasmic ALT-3-01 soybean plants, Gm chloroplastic ALT-3-01 soybean plants and wild-type soybean plants on halosulfuron-methyl were detected (at seedling stage), respectively.
(§2) Gm cytoplasmic ALT-1-01 soybean plants, Gm chloroplastic ALT-1-01 soybean plants, Gm cytoplasmic ALT-2-01 soybean plants, Gm chloroplastic ALT-2-01 soybean plants, Gm cytoplasmic ALT-3-01 soybean plants, Gm chloroplastic ALT-3-01 soybean plants and wild-type soybean plants were respectively taken and sprayed with halosulfuron-methyl ([…]) and a blank solvent (water). The damage degree caused by the herbicide was measured for each plant according to the leaf curl degree and the growth point damage degree 3 days after spraying (3 DAT), 7 days after spraying (7 DAT), 14 days after spraying (14 DAT) and 21 days after spraying (21 DAT), respectively: considering conditions of leaves being flat as the untreated plants and growth points being intact as having a damage degree of 0%; considering conditions of veins being locally browned, new leaves being malformed and plant growth being slow as having a damage degree of 50%; and considering conditions of veins being purple to whole plant being dead and growth points being browned and dry as having a damage degree of 100%. There were 2 strains in Gm cytoplasmic ALT-1-01 soybean plants in total (S1 and S2), 2 strains in Gm chloroplastic ALT-1-01 soybean plants in total (S3 and S4), 2 strains in Gm cytoplasmic ALT-2-01 soybean plants in total (S5 and S6), 2 strains in Gm chloroplastic ALT-2-01 soybean plants in total (S7 and S8), 2 strains in Gm cytoplasmic ALT-3-01 soybean plants in total (S9 and S10), 2 strains in Gm chloroplastic ALT-3-01 soybean plants in total (S11 and S12), and 1 strain in wild-type soybean plants (CK1) in total; and 10-15 plants were selected from each strain and tested.

The subject of assay [2] is wild-type soybean plants (CK1). The description is as above.
Text: as §1, §2

Assay [3] relates to wild-type maize plants (CK2). Kind of assay: Halosulfuron-methyl tolerance of maize plants (damage degree). The arrangement: Average damage % 3 DAT / Average damage % 7 DAT / Average damage % 14 DAT / Average damage % 21 DAT: dose or concentration left out as unconfirmed. As to the method: The herbicide tolerance effects of Zm cytoplasmic ALT-1-02 maize plants, Zm chloroplastic ALT-1-02 maize plants, Zm cytoplasmic ALT-2-02 maize plants, Zm chloroplastic ALT-2-02 maize plants, Zm cytoplasmic ALT-3-02 maize plants, Zm chloroplastic ALT-3-02 maize plants and wild-type maize plants on halosulfuron-methyl were detected (at V3-V4 stage), respectively.
[…] The damage degree caused by the herbicide was measured for each plant according to the plant growth status 3 days after spraying (3 DAT), 7 days after spraying (7 DAT), 14 days after spraying (14 DAT) and 21 days after spraying (21 DAT), respectively: considering a growth status equivalent to that of the untreated plants as having a damage degree of 0%; considering conditions of leaves being partially chlorotic and yellow but substantially not affecting the plant normal growth as having a damage degree of 50%; and considering the whole plant being purple and dying as having a damage degree of 100%. There were 2 strains in Zm cytoplasmic ALT-1-02 maize plants in total (S13 and S14), 2 strains in Zm chloroplastic ALT-1-02 maize plants in total (S15 and S16), 2 strains in Zm cytoplasmic ALT-2-02 maize plants in total (S17 and S18), 2 strains in Zm chloroplastic ALT-2-02 maize plants in total (S19 and S20), 2 strains in Zm cytoplasmic ALT-3-02 maize plants in total (S21 and S22), 2 strains in Zm chloroplastic ALT-3-02 maize plants in total (S23 and S24), and 1 strain in wild- type maize plants (CK2) in total; and 10-15 plants were selected from each strain and tested.

Take `COC(=O)c1c(Cl)nn(C)c1S(=O)(=O)NC(=O)Nc1nc(OC)cc(OC)n1` [halosulfuron-methyl, 3-chlorine-5-(4,6-dimethoxypyrimidine-2-aminocarbonylaminosulphonyl)-1-methylpyrazole-4-carboxylic acid methyl ester]: the “Average damage % 3 DAT” value is given as 10% in assay [1] (strain S11); 11% in assay [1] (strain S12); 51% in assay [2] (strain CK1, 34 g ai/ha (Hal.), 3 days after spraying); 10% in assay [3] (strain CK2, 3 days after spraying). Further, the “Average damage % 7 DAT” value turned out to be 4% in assay [1] (strain S11); 5% in assay [1] (strain S12); 87% in assay [2] (strain CK1, 34 g ai/ha (Hal.), 7 days after spraying); 20% in assay [3] (strain CK2, 7 days after spraying). Besides, the “Average damage % 14 DAT” value in assay [1] (strain S11) came to 0%; in assay [1] (strain S12), 0%; in assay [2] (strain CK1, 34 g ai/ha (Hal.), 14 days after spraying), 100%; in assay [3] (strain CK2, 14 days after spraying), 19%. Further, the “Average damage % 21 DAT” value in assay [1] (strain S11) was determined as 0%; in assay [1] (strain S12), 0%; in assay [2] (strain CK1, 34 g ai/ha (Hal.), 21 days after spraying), 100%; in assay [3] (strain CK2, 21 days after spraying) it was 18%. For the same compound, in assay [2] (34 g ai/ha, summary of Table 3), the “tolerance of the plants to the herbicide” value is given as “not tolerant”. Moreover, the “damage to the plants” value in assay [3] (36 g ai/ha, summary of Table 4) is recorded as “some slight damage”.
